“And” between values parts separate entries of the source, which are not always exact repeats. Equal entries are not always repeated. Each block holds one compound with its values, some of them ahead of it.
What was measured:
protein kinase D (PKD) = molecular target: protein kinase D (PKD); parameters: method as in PMID 20497126; conditions: VEGF-treated endothelial cells; read-out: IC50 against all three PKD isoforms; cited from earlier work
[1] = molecular target: T1, human PD1-PDL1 interaction (Homo sapiens, UniProt Q9NZQ7); test: HTRF human PD1-PDL1 binding assay; conditions: for IC50: dose–response 0–100 µM
T1 construct: purchased Perkin Elmer
T1 sequence (Q9NZQ7 19-238 limits assumed): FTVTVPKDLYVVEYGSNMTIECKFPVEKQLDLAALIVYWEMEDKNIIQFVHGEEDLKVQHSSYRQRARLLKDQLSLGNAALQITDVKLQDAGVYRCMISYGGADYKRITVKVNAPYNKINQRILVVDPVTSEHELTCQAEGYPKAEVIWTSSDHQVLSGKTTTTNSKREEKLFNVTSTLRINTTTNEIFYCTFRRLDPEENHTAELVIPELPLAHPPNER
Source text: The homogeneous time-resolved fluorescence (HTRF) binding assay was used to test these top 20 molecules for their potential blockade of human PD1-PDL1 interaction. We have previously established the utility of the HTRF assay over similar homogenous assay like AlphaLISA, with the latter proving to be more promiscuous in identifying potential false positives against PD1-PDL1 target.
The potential activity of our virtual hits in inhibiting PD1-PDL1 interaction was investigated using the homogeneous time-resolved fluorescence (HTRF) binding assay from Perkin Elmer. The assay was carried out according to the manufacturer’s instructions using the HTRF protocol in BioTek Synergy Neo^TM microplate reader. […] The assay mixture with only PDL1 protein, but not PD1 protein served as a negative control denoting 0% PD1-PDL1 interaction. […] The dose–response data were analyzed using GraphPad Prism to determine IC50 values using nonlinear regression variable slope models.

PD1-PDL1 interaction = system: PD1-PDL1 interaction; parameters: method as in PMID 34117723; conditions: read-out: IC50, PD1-PDL1 inhibitor; cited from earlier work
[2] = system: ceramide synthase 1 (CerS1); conditions: mice fed with high-fat diet; cited from earlier work
[3] = molecular target: T1, human PD1-PDL1 interaction; conditions: Table S1; ref BMS Patent 1: WO2015034820A1; cited from earlier work
[4] = 25 µM single-dose test concentration

- % PD1-PDL1 Inhibition [1, 4]: 50.9 ± 1.3%
- IC50 [1]: ~22 µM and ~22.4 µM
- IC50 ([1]; listed as CRT5): 22.4 µM
SMILES: CCOc1ccc2cc(-c3cc(-c4cccc(C(=O)NCCN(C)C)c4)cnc3N)ccc2c1 [Compound 1]
- IC50 (protein kinase D (PKD)): 0.001 to 0.002 µM

SMILES: Cc1cc(/C=C/c2ccc3cc(N(C)C)ccc3[n+]2C)c(C)n1-c1ccccc1 [Pyrvinium]
- IC50 (PD1-PDL1 interaction): ~29.7 µM

- % PD1-PDL1 Inhibition [1, 4]: 41.4 ± 0.9%
- IC50 [1]: ~33.6 µM
- IC50 ([1]; listed as P053): 33.6 µM
SMILES: C[C@@](N)(CO)CCc1ccc(OCc2ccc(Cl)c(Cl)c2)cc1 [Compound 2]
- fatty acid oxidation in skeletal muscles [2]: increased fatty acid oxidation

SMILES: COc1cc(OCc2cccc(-c3ccccc3)c2C)cc(OC)c1CN1CCCC[C@H]1C(=O)O [Compound 1--1]
- Activity (classification used for ML modeling) [3]: ACTIVE

- inhibition at 25 µM [1, 4]: -4.4 ± 1.2%
SMILES: Cc1c(COc2ccc(CN3CCCCC3C(=O)O)cc2Br)cccc1-c1ccccc1 (centres unmarked) [Compound 18]
